Laboratory results: the NIST ThermoML archive (doi:10.1021/acs.jced.5b01058)

Details: Liquid, Ebulliometric method (Recirculating still)

CCC(C)=O [butanone]
Details	vapor or sublimation pressure [kPa]
350.25 K	94

CCCCOC(C)=O [butyl ethanoate]
Details	vapor or sublimation pressure [kPa]
361.85 K	29.92
364.47 K	32.95
370.9 K	41.42
373.32 K	45.02
380.1 K	56.43
381.99 K	60
382.01 K	60
382.08 K	60.15
388.06 K	72.71
391.2 K	80.09
394.58 K	88.69
398.35 K	99.03
399.09 K	101.3

CCCC(=O)OCC [ethyl butanoate]
Details	vapor or sublimation pressure [kPa]
361.56 K	35.41
365.24 K	40.41
371.33 K	50
373.83 K	54.4
376.28 K	58.98
377.21 K	60
377.23 K	60
379.65 K	65.75
384.82 K	77.2
387.65 K	84.14
390.23 K	90.84
393.63 K	100.4
393.78 K	101.3

CCCCCCC [heptane]
Details	vapor or sublimation pressure [kPa]
368.85 K	94

CCCCC(=O)OC [methyl pentanoate]
Details	vapor or sublimation pressure [kPa]
361.82 K	29.41
366.7 K	35.06
370.86 K	40.47
374.53 K	45.81
378.84 K	52.83
382.55 K	59.35
383.29 K	60
387.18 K	69.02
391.14 K	77.71
395.42 K	88.17
398.03 K	95.08
400.07 K	100.4
400.48 K	101.3

CCCCCCCC [octane]
Details	vapor or sublimation pressure [kPa]
380.76 K	60
380.78 K	60
380.82 K	60
380.84 K	60
380.85 K	60
380.87 K	60
380.94 K	60

CCCCCOC=O [pentyl methanoate]
Details	vapor or sublimation pressure [kPa]
370.04 K	33.67
374.41 K	39.15
377.87 K	44.06
381.35 K	49.42
385.08 K	55.79
387.4 K	60
387.46 K	60
387.67 K	60.5
391.65 K	68.46
394.01 K	73.5
396.89 K	80.16
399.55 K	86.56
402.19 K	93.45
405.12 K	101.3

CCCOC(=O)CC [propyl propanoate]
Details	vapor or sublimation pressure [kPa]
361.75 K	33.58
367.3 K	40.92
371.88 K	47.9
373.82 K	51.21
378.75 K	60
379.07 K	60.83
383.56 K	70.32
386.81 K	77.9
390.13 K	86.38
392.74 K	93.37
395.51 K	101.3
